This is an account of results in the supplement of paper PMC10307832.

Assay in all cases: relative viability (nuclei count vs DMSO), 5 days (fraction); higher = more cells survive
Compound in experiment [1]: CC[C@H](C)N1C=C(C2=C(C=C(C=C21)C3=CN=C(C=C3)N4CCNCC4)C(=O)NCC5=C(C=C(NC5=O)C)C)C [GSK126] + NC(=O)Nc1cc(-c2cccc(F)c2)sc1C(=O)N[C@H]1CCCNC1 [AZD7762] (partner 0.2 µM)
The procedure, abridged: (§1)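 Cells from lung cancer lines were seeded into 1536-well plates and, one day later, dosed by pin tool. Treatments were either a single drug or a fixed dose of an anchor drug with five library-drug doses (not always all listed) in √10 steps. After 5 days, nuclei were stained in a one-step fixation (final 0.05% Triton X-100, 1% formaldehyde, 1 ug/ml Hoechst) and counted on 4× images, and relative viability is the treated-to-vehicle nuclei ratio, as the median of duplicate plates.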

Compound in experiment [2]: CC[C@H](C)N1C=C(C2=C(C=C(C=C21)C3=CN=C(C=C3)N4CCNCC4)C(=O)NCC5=C(C=C(NC5=O)C)C)C [GSK126] + Cc1cc(Nc2cc(N3CCN(C)CC3)nc(Sc3ccc(NC(=O)C4CC4)cc3)n2)n[nH]1 [Tozasertib] (partner 0.1 µM)
The method in brief: as §1

Compound in experiment [3]: C1CC(C1)(C(=O)O)C(=O)O.[NH2-].[NH2-].[Pt+2] [Carboplatin] + CCNC(=O)c1noc(-c2cc(C(C)C)c(O)cc2O)c1-c1ccc(CN2CCOCC2)cc1 [Luminespib] (partner 0.01 µM)
The method in brief: as §1

Compound in experiment [4]: CC[C@H](C)N1C=C(C2=C(C=C(C=C21)C3=CN=C(C=C3)N4CCNCC4)C(=O)NCC5=C(C=C(NC5=O)C)C)C [GSK126] + N=C(N)NC(=N)NCCc1ccccc1 [Phenformin] (partner 250 µM)
The procedure, abridged: as §1

In the case of NCI-H2405, the relative viability in experiment [1] (first compound 0.08 µM) was 0.794; in experiment [1] (first compound 0.253 µM), 0.603; in experiment [1] (first compound 0.8 µM) it was 0.695; in experiment [1] (first compound 2.53 µM) it was 0.715; in experiment [1] (first compound 8 µM), 0.611; in experiment [2] (first compound 0.08 µM), 0.767. Further, the relative viability in experiment [2] (first compound 0.253 µM) amounted to 0.71; in experiment [2] (first compound 0.8 µM), 0.752; in experiment [2] (first compound 2.53 µM) it was 0.697; in experiment [2] (first compound 8 µM) it was 0.608; in experiment [3] (first compound 0.08 µM), 0.813; in experiment [3] (first compound 0.253 µM), 0.838. In addition, the relative viability in experiment [3] (first compound 0.8 µM) worked out at 0.591; in experiment [3] (first compound 2.53 µM), 0.606; in experiment [3] (first compound 8 µM), 0.724; in experiment [4] (first compound 0.08 µM), 0.394; in experiment [4] (first compound 0.253 µM), 0.384; in experiment [4] (first compound 0.8 µM) it was 0.365. Also, the relative viability is 0.328 in experiment [4] (first compound 2.53 µM) and 0.304 in experiment [4] (first compound 8 µM).
Regarding NCI-H3122, the relative viability in experiment [1] (first compound 0.08 µM) came to 0.968; in experiment [1] (first compound 0.253 µM), 1.01; in experiment [1] (first compound 0.8 µM), 0.956; in experiment [1] (first compound 2.53 µM) it was 1.03; in experiment [1] (first compound 8 µM), 1.01; in experiment [2] (first compound 0.08 µM), 0.423. In addition, the relative viability in experiment [2] (first compound 0.253 µM) came to 0.393; in experiment [2] (first compound 0.8 µM), 0.367; in experiment [2] (first compound 2.53 µM), 0.33; in experiment [2] (first compound 8 µM) it was 0.344; in experiment [3] (first compound 0.08 µM), 0.102; in experiment [3] (first compound 0.253 µM), 0.0787. The relative viability in experiment [3] (first compound 0.8 µM) was found to be 0.0812; in experiment [3] (first compound 2.53 µM), 0.09; in experiment [3] (first compound 8 µM) it was 0.0968; in experiment [4] (first compound 0.08 µM), 0.405; in experiment [4] (first compound 0.253 µM), 0.367; in experiment [4] (first compound 0.8 µM), 0.364. For the same cell line, the figures for the relative viability in experiment [4] (first compound 2.53 µM) and in experiment [4] (first compound 8 µM) were 0.351 and 0.319, respectively.
In the case of PC-3 [JPC-3], the relative viability in experiment [1] (first compound 0.08 µM) amounted to 0.855; in experiment [1] (first compound 0.253 µM), 0.855; in experiment [1] (first compound 0.8 µM) it was 0.957; in experiment [1] (first compound 2.53 µM), 0.871; in experiment [1] (first compound 8 µM), 0.766; in experiment [2] (first compound 0.08 µM), 0.879. Besides, the relative viability in experiment [2] (first compound 0.253 µM) worked out at 0.919; in experiment [2] (first compound 0.8 µM), 0.883; in experiment [2] (first compound 2.53 µM), 0.866; in experiment [2] (first compound 8 µM) it was 0.805; in experiment [3] (first compound 0.08 µM), 0.807; in experiment [3] (first compound 0.253 µM) it was 0.749. In addition, the relative viability in experiment [3] (first compound 0.8 µM) was 0.616; in experiment [3] (first compound 2.53 µM) it was 0.716; in experiment [3] (first compound 8 µM), 0.703; in experiment [4] (first compound 0.08 µM) it was 0.478; in experiment [4] (first compound 0.253 µM), 0.489; in experiment [4] (first compound 0.8 µM) it was 0.48. For the same cell line, the relative viability in experiment [4] (first compound 2.53 µM) was determined as 0.456; in experiment [4] (first compound 8 µM) it was 0.489.
On to PC-14, for which the relative viability in experiment [1] (first compound 0.08 µM) stood at 0.335; in experiment [1] (first compound 0.253 µM), 0.314; in experiment [1] (first compound 0.8 µM) it was 0.35; in experiment [1] (first compound 2.53 µM), 0.417; in experiment [1] (first compound 8 µM), 0.312; in experiment [2] (first compound 0.08 µM), 0.614. Moreover, the relative viability worked out at 0.674 in experiment [2] (first compound 0.253 µM); 0.639 in experiment [2] (first compound 0.8 µM); 0.535 in experiment [2] (first compound 2.53 µM); 0.403 in experiment [2] (first compound 8 µM); 0.116 in experiment [3] (first compound 0.08 µM); 0.144 in experiment [3] (first compound 0.253 µM). For the same cell line, the relative viability in experiment [3] (first compound 0.8 µM) is 0.148; in experiment [3] (first compound 2.53 µM), 0.107; in experiment [3] (first compound 8 µM), 0.155; in experiment [4] (first compound 0.08 µM), 0.554; in experiment [4] (first compound 0.253 µM), 0.611; in experiment [4] (first compound 0.8 µM) it was 0.667. Moreover, the relative viability in experiment [4] (first compound 2.53 µM) is 0.651; in experiment [4] (first compound 8 µM), 0.565.
In the case of RERF-LC-KJ, the relative viability was determined as 1.09 in experiment [1] (first compound 0.253 µM); 0.959 in experiment [1] (first compound 0.8 µM); 1.1 in experiment [1] (first compound 2.53 µM); 1.03 in experiment [1] (first compound 8 µM); 0.562 in experiment [2] (first compound 0.08 µM); 0.449 in experiment [2] (first compound 0.253 µM). Besides, the relative viability in experiment [2] (first compound 0.8 µM) came out at 0.489; in experiment [2] (first compound 2.53 µM), 0.485; in experiment [2] (first compound 8 µM), 0.357; in experiment [3] (first compound 0.08 µM), 1.24; in experiment [3] (first compound 0.253 µM), 1.18; in experiment [3] (first compound 0.8 µM), 1.13. Also, the relative viability in experiment [3] (first compound 2.53 µM) is 0.918; in experiment [3] (first compound 8 µM), 0.5; in experiment [4] (first compound 0.08 µM), 0.484; in experiment [4] (first compound 0.253 µM), 0.417; in experiment [4] (first compound 0.8 µM), 0.396; in experiment [4] (first compound 2.53 µM), 0.4. In addition, the relative viability in experiment [4] (first compound 8 µM) worked out at 0.396.
SW 900: the relative viability in experiment [1] (first compound 0.08 µM) was determined as 0.765; in experiment [1] (first compound 0.253 µM), 0.559; in experiment [1] (first compound 0.8 µM), 0.582; in experiment [1] (first compound 2.53 µM), 0.585; in experiment [1] (first compound 8 µM), 0.58; in experiment [2] (first compound 0.08 µM), 0.577. Moreover, the relative viability in experiment [2] (first compound 0.253 µM) came out at 0.534; in experiment [2] (first compound 0.8 µM) it was 0.635; in experiment [2] (first compound 2.53 µM), 0.632; in experiment [2] (first compound 8 µM) it was 0.51; in experiment [3] (first compound 0.08 µM), 0.16; in experiment [3] (first compound 0.253 µM), 0.168. Further, the relative viability in experiment [3] (first compound 0.8 µM) amounted to 0.162; in experiment [3] (first compound 2.53 µM), 0.161; in experiment [3] (first compound 8 µM) it was 0.15; in experiment [4] (first compound 0.08 µM), 0.637; in experiment [4] (first compound 0.253 µM) it was 0.479; in experiment [4] (first compound 0.8 µM), 0.721. Also, the relative viability in experiment [4] (first compound 2.53 µM) was 0.502; in experiment [4] (first compound 8 µM) it was 0.576.
